Assay results reported in publication PMC12120719, “Targeting Senescence with Apigenin Improves Chemotherapeutic Efficacy and Ameliorates Age‐Related Conditions in Mice” (Advanced Science, 2025).

Target: T1, PRDX6 (peroxiredoxin 6) (Homo sapiens, UniProt P30041)
T1 construct: recombinant human PRDX6 (SinoBiological), immobilized on CM5 chip
T1 sequence (P30041 2-224): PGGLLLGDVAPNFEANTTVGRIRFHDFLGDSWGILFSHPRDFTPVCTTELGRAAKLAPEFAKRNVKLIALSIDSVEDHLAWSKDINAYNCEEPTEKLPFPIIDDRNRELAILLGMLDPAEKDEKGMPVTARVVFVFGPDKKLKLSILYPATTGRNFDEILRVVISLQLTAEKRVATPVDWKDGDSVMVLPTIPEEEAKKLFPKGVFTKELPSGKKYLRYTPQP
Experiment: SPR (Biacore T200); supported by MST (Kd […]), CETSA, DARTS, biotin-probe pulldown
Type: binding

Structure (SMILES): O=c1cc(-c2ccc(O)cc2)oc2cc(O)cc(O)c12 [apigenin, 4′,5,7‐trihydroxyflavone]
- Kd: 237 nM
